The source of these data is patent US12539306B2, “Mucoadhesive pharmaceutical compositions of corticosteroids” (Ferring B.V., priority 2018, dated 2026).

Converted amounts (≈) assume the structure as drawn. Read-outs that look alike come from different tables or passages of the source.

The nature of the series: Solubility of budesonide at room temperature. The series is classed as physicochemical. Here is the method: The solubility at room temperature of budesonide in water was determined to be about. 0.01 mg/ml, about 1 mg/ml in glycerin and about 10 mg/ml in propylene glycol at room temperature.

Turning to `CCCC1O[C@@H]2C[C@H]3[C@@H]4CCC5=CC(=O)C=C[C@]5(C)[C@H]4[C@@H](O)C[C@]3(C)[C@]2(C(=O)CO)O1` (stereo partly drawn) [budesonide, 16,17-butylidenebis(oxy)-11,21-dihydroxy-, (11β, 16α)-pregna-1,4-diene-3,20-dione], the solubility (usually the concentration that dissolves in the medium under given conditions) is, setting by setting: (organic solvent or mixture, glycerin, read-out: solubility in glycerin) roughly 1000 µg/mL (≈ 2320 µM); (organic solvent or mixture, propylene glycol, read-out: solubility in propylene glycol) roughly 10000 µg/mL (≈ 23200 µM); (water, read-out: solubility in water) roughly 10 µg/mL (≈ 23.2 µM).
